Results on one compound are retold here after patent US10751396B2, “Early hyperlipidemia promotes endothelial activation via a caspase-1-sirtuin 1 pathway” (Temple University—Of The Commonwealth System of Higher …, priority 2015, dated 2020).

What all share (type): cell-based, human
In one assay the test system is caspase-1. In words: Caspase-1 activity assay (FAM-YVAD-FMK, flow cytometry) in HAECs. The settings on record: 6 h, oxLDL (100 μM), LPA (30 μM), LPC (30 μM). The protocol:
(§1) Active caspase-1 level was determined with APO LOGIX kit (Cell Tech., Mountain View, Calif.). The kit contains a carboxyfluorescein (FAM) [Excitation/Emission (nm):490/520]-labeled peptide fluoromethyl ketone (FMK) caspase-1 inhibitor (FAM-YVAD-FMK), which irreversibly binds to active caspase-1. All procedures were performed according to the manufacturer's instruction. Briefly, HAECs (≤passage 9) were cultured in 6-well plates and serum starved overnight to quiescent the cells before treatment. Next day, HAECs were treated with indicated stimuli for 6 hr. Cells were then digested by trypsin-EDTA and suspended at 1×10^6 cells/ml. 150 μl of cell suspension were incubated at 37° C. with 1× FAM-YVAD-FMK for 1 hour then washed with 1× washing buffer. Unfixed caspase-1 stained cells were then incubated with 7-aminoactinomycin D (7-AAD; cell membrane integrity marker) (BD Pharmingen, San Diego, Calif.) for no more than 10 min before analysis. The Calibur flow cytometer (BD Biosciences, San Jose, Calif.) was used to determine caspase-1 active (Caspase-1^+) and 7-AAD^+ cells. Data were analyzed with the FlowJo software (Tree Star, Ashland, Oreg.).
Active caspase-1 levels were determined with an APO LOGIX kit (Cell Technology, Mountain View, Calif.). The kit contained a carboxyfluorescein (FAM) (excitation/emission (nm): 490/520)-labeled peptide fluoromethyl ketone (FMK) caspase-1 inhibitor (FAM-YVAD-FMK), which irreversibly binds to active caspase-1. The procedures were performed according to the manufacturer's instructions. HAECs were cultured in 6-well dishes and serum-starved overnight to ensure quiescence of the cells before treatment. The next day, HAECs were treated with the indicated stimuli for 6 h. Cells were harvested and suspended at 1×10^6 cells/ml. The cell suspension (150 μl) was incubated in 37° C. with 1× FAM-YVAD-FMK for 1 h. After being washed with 1× washing buffer, the cells were fixed with fixative buffer and stored in 4° C. for up to 24 h. To determine the cell membrane integrity, the unfixed cells were stained with 7-AAD (Pharmingen) (0.25 μg/test) and incubated for no more than 10 min before analysis.
(§2) All flow cytometric data were analyzed by using the FlowJo software (Tree Star, Ashland, Oreg.). The uncompensated data were collected from the flow cytometer (either FACSCalibur flow cytometer or LSRII flow cytometer; BD Biosciences). Forward and side scatter gates were used to select live cell populations from clumps and debris. The positive gating was determined by its matched IgG control, and single staining was used to determine the compensation parameter. Different gates were established to analyze the data according to cell size as described in our figures.
(In flow cytometry, cells or beads pass a laser one at a time.)

Assay [1] deals with HAECs. In words: Tube formation assay in Matrigel. The settings on record: LPC (30 μm) with or without caspase-1 inhibitor (10 μm), Matrigel 16 h. How it is done: FIG. 18, comprising FIG. 18A and FIG. 18B, depicts experimental results showing tube formation, as an in vitro model of angiogenesis, is improved after caspase-1 inhibition in LPC-treated cells. FIG. 18A depicts experiments where HAECs were treated with LPC (30 μm) and caspase-1 inhibitor (10 μm) for 6 h. After the treatment, the cells were incubated in the Matrigel for 16 h for the analysis of tube formation. FIG. 18B depicts bar graph showing the increases of total master segment lengths after the inhibition of caspase-1 in LPC-treated HAECs.*, p<0.05.
The Matrigel matrix (Bedford, Mass.) was used to coat the 96-well plates. Human aortic endothelial cells were cultured. The cells were treated with caspase-1 inhibitor (Anaspec, Fremont, Calif.) and proatherogenic stimulus LPC for 24 h. HAECs were harvested and suspended. Cell concentration was determined and added to each Matrigel-coated well and incubated for 16-18 h. Images were collected using the inverted microscope.

Assay [2] deals with HAECs. In words: Caspase-1/7-AAD co-staining for pyroptosis in HAECs. How it is done: FIG. 7, comprising FIG. 7A through FIG. 7D, depicts experimental results showing Oxidized low-density lipoprotein (oxLDL) and its components induce caspase-1 (casp-1) activation in human aortic endothelial cells (HAECs) via a reactive oxygen species (ROS)-mediated p-athway. FIG. 7A depicts pyroptotic cell death in HAECs caused by activation of casp-1 induced by oxLDL and its components. HAECs were cultured and treated with low-density lipoprotein (LDL; 100 μg/mL), oxLDL (100 μg/mL), oxLDL-derivatives lysophosphatidic acid (LPA, 100 μM), or lysophosphatidylcholine (LPC, 15 μM) as indicated for 6 hours. Casp-1 activity was determined by a commercial kit, and 7-aminoactinomycin D (7-AAD) fluorescence dye was used to determine the cell membrane integrity. Casp-1^+/7-AAD^+ cells were gated as pyrototic cells (Q3), casp-1^+ single positive cells (Q2) were gated as inflammatory cells, and 7-AAD^+ single positive cells (Q4) were gated as necrotic cells. FIG. 7B depicts ROS levels in pyroptotic cells. ROS levels were determined by dihydroethidium (DHE) fluorescence dye staining, and the mean fluorescence intensity (MFI) of DHE^+ cell fraction was determined. […] Allopurinol (1 mmol/L) and Apocynin (100 μM) were added 1 hour before oxLDL treatment. HAECs were then treated with oxLDL (100 μg/mL) for 6 hours and stained for caspase-1 activity. FIG. 7D depicts mRNA upregulation of inflammasome components, including NLRP1 (Nod-like receptor protein 1), NLRP3 (Nod-like receptor 3), PYCARD (or ASC, inflammasome adaptor apoptosis-associated speck-like protein containing a CARD), caspase-1, and IL-1β (interleukin-1β) in HAECs treated with oxLDL. Data are expressed as mean±SE. *P<0.05, changes with statistical significance.
as §1
Active caspase-1 levels were determined with an APO LOGIX kit (Cell Technology, Mountain View, Calif.). The kit contained a carboxyfluorescein (FAM) (excitation/emission (nm): 490/520)-labeled peptide fluoromethyl ketone (FMK) caspase-1 inhibitor (FAM-YVAD-FMK), which irreversibly binds to active caspase-1. The procedures were performed according to the manufacturer's instructions. HAECs were cultured in 6-well dishes and serum-starved overnight to ensure quiescence of the cells before treatment. The next day, HAECs were treated with the indicated stimuli for 6 h. Cells were harvested and suspended at 1×10^6 cells/ml. […]

The subject of the next assay is VEGFR-2. In words: VEGFR-2 expression in LPC-treated HAECs by flow cytometry. Particulars: LPC (30 μM) 6 h; caspase-1 inhibitor or Sirt-1 activator 10 μM pretreatment where named. The protocol: FIG. 17, comprising FIG. 17A through FIG. 17D, depicts experimental results showing inhibition of caspase-1 activation and activation of Sirt-1 increase VEGFR-2 expression. FIG. 17A depicts experiments showing caspase-1 depletion increases VEGFR-2 expression. A microarray data-mining analysis was performed by analyzing the indicated microarray dataset deposited in the National Institutes of Health NCBI-Geo-profile database. The gene expression value was determined based on the relative threshold cycle on the database. […] In addition, depletion of caspase-1 slightly increases the expressions of the caspase-1-cleaving substrates cytokines IL-1β and IL-18. […] FIG. 17B depicts caspase-1 inhibition and Sirt-1 activation increase the expression of VEGFR-2 after LPC treatment in HAECs. HAECs pretreated with the caspase-1 inhibitor (10 μM) and Sirt-1 activator (10 μM) and then treated with LPC (30 μM) for 6 h have an increased expression of VEGFR-2. FIG. 17C depicts three cell size gates were established, small, medium, and large according to FSC (y axis); and VEGFR-2 expression (x axis) was measured in those gated cells to analyze differential VEGFR-2 expressions according to the cell size after treatments with LPC (30 μM), caspase-1 inhibitor (10 μm), and Sirt-1 activator (10 μm) for 6 h. […] FIG. 17D depicts bar graphs showing the quantitation data of VEGFR-2 expressions. *, p<0.05.
as §2

Molecules are shown by their SMILES.

As to `CCCCCCCCCCCCCCCC(=O)OC[C@@H](O)COP(=O)([O-])OCC[N+](C)(C)C` [LPC, 1-hexadecanoyl-sn-glycerol-3-phosphorylcholine], in the assay on caspase-1 (large FSC gate), the “caspase-1 activation in larger size of HAECs” value came to 52.8%. Besides, the “caspase-1 activation in smaller size of HAECs” value in the assay on caspase-1 (small FSC gate) is 38.2%. Further, the “total master segment length of tube formation” value in the assay with HAECs [1] was found to be 317 μm. In addition, the “induction of inflammation, pyroptosis and necrosis (caspase-1/7-AAD gating)” value with HAECs [2] (HAECs, 6-hour stimulation, oxLDL 100 μg/mL, LPA 100 μM, LPC 15 μM) is “induced inflammation, inflammatory cell death (pyroptosis), and necrosis”. Moreover, in the assay on HAECs [2] (LPC-treated HAECs), the “7-AAD+ pyroptosis in large size of caspase-1(+) HAECs” value was 9.93%, the “7-AAD+ pyroptosis in medium size of caspase-1(+) HAECs” value came out at 20.17% and the “7-AAD+ pyroptosis in smaller size of caspase-1(+) HAECs” value came to 38.77%. Besides, in the assay with VEGFR-2, the “VEGFR-2 expression in the larger size of HAECs” value is listed as 34.3%, the “VEGFR-2 expression in the medium size of HAECs” value amounted to 22.1% and the “VEGFR-2 expression in the smaller size of HAECs” value amounted to 11.3%.
